Tests used:
[1] = Stability against light (30±2° C., 1,200,000 or 3,600,000 Lux·hr; HPLC); assay type: physicochemical; conditions: for change of total amount of related substances of Compound (I) (in words): after storage under light of 1,200,000 or 3,600,000 Lux·hr
Method: The form I dry crystals and the form II crystals of Compound (I) were used as samples. About 3 g of each of the samples was placed in each petri dish, and was then stored at an average temperature of 30±2° C. under light of 1,200,000 Lux·hr or 3,600,000 Lux·hr. After storage, the amount of Compound (I) and the total amount of related substances of Compound (I) were measured by HPLC.

[2] = Storage stability (40° C., 75% RH, 6 months; HPLC); assay type: physicochemical
Method: The form I dry crystals and the form II crystals of Compound (I) were used as samples. About 3 g of each of the samples was placed in a double polyethylene bag, and the bag containing the sample was stored in an aluminum can at 40° C. and 75% RH. After storage for 6 months, the amount of Compound (I) and the total amount of related substances of Compound (I) were measured by HPLC.

[3] = 1,200,000 Lux·hr, 30±2° C., petri dish
[4] = 6 months at 40° C. and 75% RH, double polyethylene bag in aluminum can

## CC1(C)CC[C@]2(C(=O)O)CC[C@]3(COC(=O)/C=C/c4cc(O)ccc4NC(=O)/C=C/C(=O)O)C(=CCC4[C@@]5(C)CCC(=O)C(C)(C)C5CC[C@]43C)C2C1 (some centres unmarked) [Form I dry crystal, reference compound]
[1]; 1,200,000 Lux·hr, 30±2° C.
  Total amount of related substances(%): 0.27%
[1]; [3]
  Amount of Compound (I)(%): 99.2%
[1]; Initial value
  Amount of Compound (I)(%): 99.8%
  Total amount of related substances(%): 0.16%
[1]; listed as form I dry crystals
  change of total amount of related substances of Compound (I) (in words): increased
[2]; 6 months at 40° C. and 75% RH
  Amount of analogue B: 0.21%
  Total amount of related substances(%): 0.43%
[2]; [4]
  Amount of Compound (I)(%): 97.8%
[2]; Initial value
  Amount of Compound (I)(%): 99.8%
  Amount of analogue B: <0.05%
  Total amount of related substances(%): 0.16%
[2]; after storage for 6 months at 40° C. and 75% RH
  change of amount of analogue B (in words): significantly increased
[2]; after storage for 6 months at 40° C. and 75% RH, listed as form I dry crystals
  change of total amount of related substances of Compound (I) (in words): increased

## CC1(C)CC[C@]2(C(=O)O)CC[C@]3(COC(=O)/C=C/c4cc(O)ccc4NC(=O)/C=C/C(=O)O)C(=CCC4[C@@]5(C)CCC(=O)C(C)(C)C5CC[C@]43C)C2C1 (some centres unmarked) [Form II crystal]
[1]; 1,200,000 Lux·hr, 30±2° C.
  Total amount of related substances(%): 0.17%
[1]; [3]
  Amount of Compound (I)(%): 99.4%
[1]; 3,600,000 Lux·hr, 30±2° C.
  Total amount of related substances(%): 0.18%
[1]; 3,600,000 Lux·hr, 30±2° C., petri dish
  Amount of Compound (I)(%): 99.3%
[1]; Initial value
  Amount of Compound (I)(%): 100.3%
  Total amount of related substances(%): 0.15%
[1]; listed as form II crystals
  change of total amount of related substances of Compound (I) (in words): hardly changed
[1]; light of 1,200,000 or 3,600,000 Lux·hr
  stability against light (in words): stable against light
[2]; 6 months at 40° C. and 75% RH
  Amount of analogue B: <0.05%
  Total amount of related substances(%): 0.17%
  storage stability (in words): stable
[2]; [4]
  Amount of Compound (I)(%): 98.6%
[2]; Initial value
  Amount of Compound (I)(%): 98.9%
  Amount of analogue B: <0.05%
  Total amount of related substances(%): 0.21%
[2]; after storage for 6 months at 40° C. and 75% RH, listed as form II crystals
  change of total amount of related substances of Compound (I) (in words): hardly changed
